What was measured:
[1] = biological target: T1, CYP2A6 (Homo sapiens, UniProt P11509); assay: Coumarin 7-hydroxylation in human liver microsomes; format: in vitro ADME; details: 100 μM; 2 μM coumarin
T1 construct: Standard incubation mixtures of 0.5 ml contained microsomal protein (0.1–0.5 mg); from tissue; host or cells: pooled human liver microsomes (ten donors)
T1 sequence (P11509 1-494): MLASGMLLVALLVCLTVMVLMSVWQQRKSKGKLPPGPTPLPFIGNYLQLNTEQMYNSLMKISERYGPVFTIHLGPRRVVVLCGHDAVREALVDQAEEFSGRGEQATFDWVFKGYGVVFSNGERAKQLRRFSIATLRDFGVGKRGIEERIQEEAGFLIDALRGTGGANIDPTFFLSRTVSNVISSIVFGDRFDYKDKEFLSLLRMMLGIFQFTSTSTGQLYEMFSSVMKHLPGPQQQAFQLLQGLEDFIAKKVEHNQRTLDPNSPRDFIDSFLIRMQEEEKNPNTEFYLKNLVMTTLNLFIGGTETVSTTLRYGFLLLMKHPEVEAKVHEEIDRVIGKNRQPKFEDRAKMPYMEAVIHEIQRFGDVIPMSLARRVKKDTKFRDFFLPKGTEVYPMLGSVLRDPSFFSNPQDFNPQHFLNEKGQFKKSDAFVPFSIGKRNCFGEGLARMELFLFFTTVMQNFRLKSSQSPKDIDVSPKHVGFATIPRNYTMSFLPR

[2] = biological target: T2, CYP2E1 (Homo sapiens, UniProt P05181); assay: Chlorzoxazone 6-hydroxylation in human liver microsomes; format: in vitro ADME; details: 100 μM; 100 μM chlorzoxazone
T2 construct: Standard incubation mixtures of 0.5 ml contained microsomal protein (0.1–0.5 mg); from tissue; host or cells: pooled human liver microsomes (ten donors)
T2 sequence (P05181 whole entry): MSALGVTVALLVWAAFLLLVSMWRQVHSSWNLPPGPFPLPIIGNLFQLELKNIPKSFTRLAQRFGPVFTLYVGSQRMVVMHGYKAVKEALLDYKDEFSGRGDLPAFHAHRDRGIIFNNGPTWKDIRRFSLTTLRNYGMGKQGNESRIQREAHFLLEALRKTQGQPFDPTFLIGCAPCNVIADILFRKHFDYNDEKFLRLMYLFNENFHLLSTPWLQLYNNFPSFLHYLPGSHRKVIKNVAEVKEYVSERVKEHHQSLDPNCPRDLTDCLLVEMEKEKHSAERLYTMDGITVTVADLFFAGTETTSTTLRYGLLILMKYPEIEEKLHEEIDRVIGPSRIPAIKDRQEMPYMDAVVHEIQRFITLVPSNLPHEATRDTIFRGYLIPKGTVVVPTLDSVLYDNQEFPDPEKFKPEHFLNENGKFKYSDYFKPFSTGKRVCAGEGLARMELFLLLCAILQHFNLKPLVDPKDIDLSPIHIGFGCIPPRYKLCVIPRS

CCN(CC)C(=S)S [Diethyldithiocarbamate, diethyldithiocarbamate]
Percent of Control [1]: 38.2% of Control
Percent of Control [2]: 55.0% of Control

Reference: publication PMC1664607 (PLoS Medicine, 2006)
